Measured values taken from US20220169629A1, “PESTICIDALLY ACTIVE DIAZINE-AMIDE COMPOUNDS” (SYNGENTA CROP PROTECTION AG, priority 2019, published 2022).

Assays:
Assay type in all cases: in vivo
[1] = test system: Plutella xylostella (diamondback moth); test: Example B10: Plutella xylostella (diamondback moth), 96-well artificial diet; settings: 216 h, application rate of 500 ppm, 9 days after infestation, eggs/L1 larvae
Method: Example B10: Plutella xylostella (Diamondback Moth)
96-well microtiter plates containing artificial diet were treated with aqueous test solutions, prepared from 10′000 ppm DMSO stock solutions, by a liquid handling robot. After drying, eggs (˜30 per well) were infested onto a netted lid which was suspended above the diet. The eggs hatch and L1 larvae move down to the diet. The samples were assessed for mortality 9 days after infestation.

[2] = test system: Tetranychus urticae (two-spotted spider mite); test: Example B11: Tetranychus urticae (two-spotted spider mite), feeding/contact activity; settings: foliar, 192 h
Method: Example B11: Tetranychus urticae (Two-Spotted Spider Mite): Feeding/Contact Activity
Bean leaf discs on agar in 24-well microtiter plates were sprayed with aqueous test solutions prepared from 10′000 ppm DMSO stock solutions. After drying the leaf discs were infested with a mite population of mixed ages. The samples were assessed for mortality on mixed population (mobile stages) 8 days after infestation.

[3] = test system: Chilo suppressalis (striped rice stemborer); test: Example B4: Chilo suppressalis (striped rice stemborer), artificial diet, L2 larvae; settings: 144 h, application rate of 200 ppm, 6 days after infestation, L2 larvae on artificial diet, read-out: control in at least one of the three categories (mortality, anti-feeding or growth inhibition)
Method: Example B4: Chilo suppressalis (Striped rice stemborer)
24-well microtiter plates with artificial diet were treated with aqueous test solutions prepared from 10′000 ppm DMSO stock solutions by pipetting. After drying, the plates were infested with L2 larvae (6-8 per well). The samples were assessed for mortality, anti-feeding effect, and growth inhibition in comparison to untreated samples 6 days after infestation. Control of Chilo suppressalis by a test sample is given when at least one of the categories mortality, anti-feedant effect, and growth inhibition is higher than the untreated sample.

[4] = test system: Plutella xylostella (diamond back moth); test: Example B5: Plutella xylostella (diamond back moth), artificial diet, 24-well, eggs; settings: 192 h, application rate of 200 ppm, 8 days after infestation, read-out: control in at least one of the two categories (mortality or growth inhibition)
Method: Example B5: Plutella xylostella (Diamond Back Moth)
24-well microtiter plates with artificial diet were treated with aqueous test solutions prepared from 10′000 ppm DMSO stock solutions by pipetting. After drying, Plutella eggs were pipetted through a plastic stencil onto a gel blotting paper and the plate was closed with it. The samples were assessed for mortality and growth inhibition in comparison to untreated samples 8 days after infestation.

[5] = test system: Spodoptera littoralis (Egyptian cotton leaf worm); test: Example B8: Spodoptera littoralis (Egyptian cotton leaf worm), uptake by lettuce roots from agar; settings: 144 h, test rate of 12.5 ppm, 6 days after infestation, compound absorbed by lettuce roots, read-out: control in at least one of the three categories (mortality, anti-feeding, or growth inhibition)
Text: Example B8: Spodoptera littoralis (Egyptian Cotton Leaf Worm)
Test compounds were applied by pipette from 10′000 ppm DMSO stock solutions into 24-well plates and mixed with agar. Lettuce seeds were placed onto the agar and the multi well plate was closed by another plate which contained also agar. After 7 days the compound was absorbed by the roots and the lettuce grew into the lid plate. The lettuce leaves were then cut off into the lid plate. Spodoptera eggs were pipetted through a plastic stencil onto a humid gel blotting paper and the lid plate was closed with it. The samples were assessed for mortality, anti-feedant effect and growth inhibition in comparison to untreated samples 6 days after infestation.

[6] = test system: Diabrotica balteata (corn root worm); test: Example B1: Diabrotica balteata (corn root worm), sprayed maize sprouts, L2 larvae; settings: 96 h, application rate of 200 ppm, 4 days after infestation, L2 larvae on maize sprouts, read-out: control in at least one of the two categories (mortality or growth inhibition)
Method: Example B1: Diabrotica Balteata (Corn Root Worm)
Maize sprouts placed onto an agar layer in 24-well microtiter plates were treated with aqueous test solutions prepared from 10′000 ppm DMSO stock solutions by spraying. After drying, the plates were infested with L2 larvae (6 to 10 per well). The samples were assessed for mortality and growth inhibition in comparison to untreated samples 4 days after infestation.

[7] = test system: Myzus persicae (green peach aphid); test: Example B9: Myzus persicae (green peach aphid), 96-well sucrose solution; settings: 120 h, application rate of 50 ppm, 5 days after infestation
Text: Example B9: Myzus persicae (Green Peach Aphid)
Test compounds prepared from 10′000 ppm DMSO stock solutions were applied by a liquid handling robot into 96-well microtiter plates and mixed with a sucrose solution. Parafilm was stretched over the 96-well microtiter plate and a plastic stencil with 96 holes was placed onto the plate. Aphids were sieved into the wells directly onto the Parafilm. The infested plates were closed with a gel blotting card and a second plastic stencil and then turned upside down. The samples were assessed for mortality 5 days after infestation.

[8] = test system: Myzus persicae (green peach aphid); test: Example B6: Myzus persicae (green peach aphid), intrinsic activity; settings: 120 h, test rate of 12 ppm, 5 days after infestation, sucrose solution, infested pea seedlings
Text: Example B6: Myzus persicae (Green Peach Aphid): Intrinsic Activity
Test compounds prepared from 10′000 ppm DMSO stock solutions were applied by pipette into 24-well microtiter plates and mixed with sucrose solution. The plates were closed with a stretched Parafilm. A plastic stencil with 24 holes was placed onto the plate and infested pea seedlings were placed directly on the Parafilm. The infested plate was closed with a gel blotting paper and another plastic stencil and then turned upside down. The samples were assessed for mortality 5 days after infestation.

[9] = test system: Spodoptera littoralis (Egyptian cotton leaf worm); test: Example B7: Spodoptera littoralis (Egyptian cotton leaf worm), sprayed cotton leaf discs, L1 larvae; settings: foliar, 72 h, application rate of 200 ppm, 3 days after infestation, L1 larvae on cotton leaf discs, read-out: control in at least one of the three categories (mortality, anti-feeding or growth inhibition)
Method: Example B7: Spodoptera littoralis (Egyptian Cotton Leaf Worm)
Cotton leaf discs were placed onto agar in 24-well microtiter plates and sprayed with aqueous test solutions prepared from 10′000 ppm DMSO stock solutions. After drying the leaf discs were infested with five L1 larvae. The samples were assessed for mortality, anti-feeding effect, and growth inhibition in comparison to untreated samples 3 days after infestation. Control of Spodoptera littoralis by a test sample is given when at least one of the categories mortality, anti-feedant effect, and growth inhibition is higher than the untreated sample.

[10] = test system: Euschistus heros (neotropical brown stink bug); test: Example B2: Euschistus heros (neotropical brown stink bug), sprayed soybean leaves, N2 nymphs; settings: 120 h, application rate of 200 ppm, 5 days after infestation, N2 nymphs on soybean leaves, read-out: control in at least one of the two categories (mortality or growth inhibition)
Method: Example B2: Euschistus heros (Neotropical Brown Stink Bug)
Soybean leaves on agar in 24-well microtiter plates were sprayed with aqueous test solutions prepared from 10′000 ppm DMSO stock solutions. After drying the leaves were infested with N2 nymphs. The samples were assessed for mortality and growth inhibition in comparison to untreated samples 5 days after infestation.

[11] = test system: Bemisia tabaci (cotton white fly); test: Example B3: Bemisia tabaci (cotton white fly), feeding/contact activity; settings: foliar, 144 h, application rate of 200 ppm, 6 days after incubation, adult white flies on cotton leaf discs
Method: Example B3: Bemisia tabaci (Cotton White Fly): Feeding/Contact Activity
Cotton leaf discs were placed on agar in 24-well microtiter plates and sprayed with aqueous test solutions prepared from 10′000 ppm DMSO stock solutions. After drying the leaf discs were infested with adult white flies. The samples were checked for mortality 6 days after incubation.

CC(NC(=O)c1cc(OCC(F)F)cc(C(F)(F)F)c1)c1nccnc1-c1ccc(OCC(F)F)cn1 (stereo not drawn) [Compound P16, 3-(2,2-difluoroethoxy)-N-[1-[3-[5-(2,2-difluoroethoxy)-2-pyridyl]pyrazin-2-yl]ethyl]-5-(trifluoromethyl)benzamide]
≥ 80%: mortality at 500 ppm [1] | mortality at 200 ppm [2] | control at 200 ppm [3] | percent control (mortality or growth inhibition) at 200 ppm [4]

CC(NC(=O)c1cc(Br)cc(C(F)(F)F)c1)c1nccnc1-c1ncc(OC(F)F)cn1 (stereo not drawn) [Compound P23, 3-bromo-N-[1-[3-[5-(difluoromethoxy)pyrimidin-2-yl]pyrazin-2-yl]ethyl]-5-(trifluoromethyl)benzamide]
≥ 80%: mortality at 500 ppm [1] | percent control (mortality, anti-feeding or growth inhibition) at 12.5 ppm [5] | percent control (mortality or growth inhibition) at 200 ppm [6] | mortality at 50 ppm [7] | mortality at 12 ppm [8] | percent control (mortality, anti-feeding or growth inhibition) at 200 ppm [9] | control at 200 ppm [3] | percent control (mortality or growth inhibition) at 200 ppm [4]

C[C@H](NC(=O)c1cc(C(F)(F)F)cc(C(F)(F)F)c1)c1nccnc1-c1ccc(OC(F)F)cn1 [Compound P24, N-[(1S)-1-[3-[5-(difluoromethoxy)-2-pyridyl]pyrazin-2-yl]ethyl]-3,5-bis(trifluoromethyl)benzamide]
≥ 80%: mortality at 500 ppm [1] | percent control (mortality, anti-feeding or growth inhibition) at 12.5 ppm [5] | percent control (mortality or growth inhibition) at 200 ppm [10] | percent control (mortality or growth inhibition) at 200 ppm [6] | percent control (mortality, anti-feeding or growth inhibition) at 200 ppm [9] | control at 200 ppm [3] | percent control (mortality or growth inhibition) at 200 ppm [4]

CC(NC(=O)c1cc(OC(F)F)cc(C(F)(F)F)c1)c1nccnc1-c1ncc(OC(F)F)cn1 (stereo not drawn) [Compound P26, 3-(difluoromethoxy)-N-[1-[3-[5-(difluoromethoxy)pyrimidin-2-yl]pyrazin-2-yl]ethyl]-5-(trifluoromethyl)benzamide]
≥ 80%: mortality at 500 ppm [1] | percent control (mortality or growth inhibition) at 200 ppm [6] | mortality at 50 ppm [7] | mortality at 12 ppm [8] | percent control (mortality, anti-feeding or growth inhibition) at 200 ppm [9] | control at 200 ppm [3] | percent control (mortality or growth inhibition) at 200 ppm [4]

CC(NC(=O)c1cc(OC(F)F)cc(C(F)(F)F)c1)c1nccnc1-c1ncc(OCC(F)F)cn1 (stereo not drawn) [Compound P28, N-[1-[3-[5-(2,2-difluoroethoxy)pyrimidin-2-yl]pyrazin-2-yl]ethyl]-3-(difluoromethoxy)-5-(trifluoromethyl)benzamide]
≥ 80%: mortality at 500 ppm [1] | percent control (mortality or growth inhibition) at 200 ppm [10] | percent control (mortality or growth inhibition) at 200 ppm [6] | mortality at 50 ppm [7] | mortality at 12 ppm [8] | percent control (mortality, anti-feeding or growth inhibition) at 200 ppm [9] | control at 200 ppm [3] | percent control (mortality or growth inhibition) at 200 ppm [4]

CC(NC(=O)c1cc(Br)cc(C(F)(F)F)c1)c1nccnc1-c1ncc(OCC(F)F)cn1 (stereo not drawn) [Compound P35, 3-bromo-N-[1-[3-[5-(2,2-difluoroethoxy)pyrimidin-2-yl]pyrazin-2-yl]ethyl]-5-(trifluoromethyl)benzamide]
≥ 80%: percent control (mortality, anti-feeding or growth inhibition) at 12.5 ppm [5] | percent control (mortality or growth inhibition) at 200 ppm [10] | mortality at 200 ppm [11] | percent control (mortality or growth inhibition) at 200 ppm [6] | mortality at 12 ppm [8] | percent control (mortality, anti-feeding or growth inhibition) at 200 ppm [9] | control at 200 ppm [3] | percent control (mortality or growth inhibition) at 200 ppm [4]

CC(NC(=O)c1cc(Cl)cc(C(F)(F)F)c1)c1nccnc1-c1ncc(OCC(F)(F)F)cn1 (stereo not drawn) [Compound P37, 3-chloro-N-[1-[3-[5-(2,2,2-trifluoroethoxy)pyrimidin-2-yl]pyrazin-2-yl]ethyl]-5-(trifluoromethyl)benzamide]
≥ 80%: percent control (mortality, anti-feeding or growth inhibition) at 12.5 ppm [5] | percent control (mortality or growth inhibition) at 200 ppm [10] | percent control (mortality or growth inhibition) at 200 ppm [6] | percent control (mortality, anti-feeding or growth inhibition) at 200 ppm [9] | control at 200 ppm [3] | percent control (mortality or growth inhibition) at 200 ppm [4]
